Legend:
[1] = biological target: T1, eEF1A1 (recombinant human eEF1A1) (Homo sapiens, UniProt P68104); assay: isothermal titration calorimetry (MicroCal PEAQ-ITC); assay type: binding
T1 sequence (P68104 1-462): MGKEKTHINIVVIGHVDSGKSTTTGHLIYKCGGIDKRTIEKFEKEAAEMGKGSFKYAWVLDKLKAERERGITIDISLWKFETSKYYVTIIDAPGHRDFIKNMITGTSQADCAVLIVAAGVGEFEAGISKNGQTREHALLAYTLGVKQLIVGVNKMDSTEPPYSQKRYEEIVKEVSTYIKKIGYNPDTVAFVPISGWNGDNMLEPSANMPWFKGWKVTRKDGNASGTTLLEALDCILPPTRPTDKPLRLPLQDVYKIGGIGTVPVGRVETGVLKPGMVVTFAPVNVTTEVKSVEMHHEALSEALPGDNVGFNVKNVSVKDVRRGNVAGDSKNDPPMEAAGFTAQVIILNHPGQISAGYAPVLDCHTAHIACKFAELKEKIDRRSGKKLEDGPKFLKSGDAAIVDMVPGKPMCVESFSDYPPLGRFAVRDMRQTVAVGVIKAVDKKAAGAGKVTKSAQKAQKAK
From the text: isothermal titration calorimetry (MicroCal PEAQ-ITC) on eEF1A1 (recombinant human eEF1A1) | ITC assay confirmed the affinity of Nef to eEF1A1 with the affinity constant of […]

[2] = biological target: T2, eEF1A1 (RAW264.7 macrophages) (Mus musculus, UniProt P10126); assay: CETSA and DARTS with Western blot; competition of probe pull-down; assay type: biochemical; settings: RAW264.7 lysate or cells; Nef 200 µM (CETSA methods) or 10 µM (figure legend); DARTS 2.5-10 µM with pronase
T2 construct: endogenous protein in RAW264.7 cells or lysate, about 50 kDa band, identified by LC-MS/MS and Western blot
T2 sequence (P10126 2-462): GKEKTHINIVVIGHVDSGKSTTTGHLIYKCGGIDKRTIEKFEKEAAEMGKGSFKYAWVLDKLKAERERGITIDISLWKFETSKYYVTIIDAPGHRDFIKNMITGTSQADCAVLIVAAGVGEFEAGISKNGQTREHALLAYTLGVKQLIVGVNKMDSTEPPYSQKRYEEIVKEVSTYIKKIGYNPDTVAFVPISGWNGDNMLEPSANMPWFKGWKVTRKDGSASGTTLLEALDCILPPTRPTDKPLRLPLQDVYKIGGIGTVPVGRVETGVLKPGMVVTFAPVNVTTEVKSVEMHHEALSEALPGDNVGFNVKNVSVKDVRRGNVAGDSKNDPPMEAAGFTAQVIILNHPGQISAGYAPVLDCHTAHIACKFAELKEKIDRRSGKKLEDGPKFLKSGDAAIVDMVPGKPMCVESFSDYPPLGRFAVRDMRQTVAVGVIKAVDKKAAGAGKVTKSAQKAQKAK

- Kd [1]: 4.83 µM
Structure (SMILES): COc1ccc(C[C@@H]2c3cc(Oc4cc(C[C@@H]5c6cc(OC)c(OC)cc6CCN5C)ccc4O)c(OC)cc3CCN2C)cc1 [neferine]
- CETSA and DARTS with Western blot; competition of probe pull-down [2]: Nef administration protected the eEF1A1 protein from temperature‐dependent degradation in cell lysis

From PMC12005739, “Disruption of the eEF1A1/ARID3A/PKC‐δ Complex by Neferine Inhibits Macrophage Glycolytic Reprogramming in Atherosclerosis” (Advanced Science, 2025)
